Assay results published in patent US6723897B2, “Methods for controlling gibberellin levels” (Monsanto Technology, LLC, priority 1998, dated 2004).

Columns and labels:
[1] = system: transgenic line 719 soybean; assay: Field trial of seed coatings under soil compaction / different soils, GA-deficient soybean; format: in vivo, Glycine max; settings: for Count (emergence) / Dwarfs (number of dwarfs not rescued) / Dwarfs (number not rescued): Line 719
[2] = system: wild-type soybean line A3237; assay: Experiment II second greenhouse test, seed imbibition, wild-type soybean; format: in vivo, Glycine max; settings: 0.125 mg/ml; seeds imbibed 6 hours
Description: (The compounds are tested in Experiment I at only one concentration, i.e., 0.25 mg/ml). Test tubes contained […] of ethanol solution per tube. Final volumes are made up to 30 ml with deionized water. After shaking, the treatment solutions (15 ml each) are transferred to each of two 50 ml test tubes. […] Twenty seeds are used in each treatment. Dry seed, ethanol/water-imbibed seed (1% ethanol in water, v/v), and water-imbibed seeds are included as controls. Seeds are imbibed for 6 hours in the test solutions, then planted in bread pans containing Metromix 350 (The Scotts Company, Marysville, Ohio), and covered with 0.5″ Metro-mix. Covered pans are transferred to the greenhouse and subirrigated. Illumination is at a light intensity of 300-400 μmolm^−2s^−1 photosynthetic photon flux; 16 hours light/8 hours dark. Subsequent waterings are also through sub-irrigation until the test is terminated three weeks later. Observations included the number of dwarf, intermediate, and tall plants; plant height; uniformity of rescue; and any visual effects. Digital photographs are also taken.

[3] = system: wild-type soybean line A4922; assay: Field trial of seed coating application rates, wild-type soybean
Description: GA3, GA3-3-acetate, GA5, GA9, and GA12 are evaluated in further field trials. […] The objectives of these tests are: 1) to determine if seed coatings, as compared to imbibition, of GA compounds facilitate rescue of constitutively GA-deficient transgenic dwarf soybeans (transgenic lines 719−2 plus 719+17) without causing elongation of wild-type soybeans (line A4922), and 2) to determine the seed treatment rate ranges for each of the selected GA compounds that would provide rescue of constitutively GA-deficient transgenic dwarf soybeans (transgenic lines 719−2 plus 719+17) without causing elongation of wild-type soybeans (line A4922).
Seeds are treated with GA3, GA5, GA9, GA12, and GA3-3-acetate at rates of 0, 0.1, 1, 10, and 100 μg/seed. These GA compounds are applied to the seeds using a Hege 11 seed treater (Hans-Ulrich Hege GmbH & Co., Waldenburg, Germany); 100% acetone is used as the carrier solvent. The amount of liquid introduced into the seed treater is six fluid ounces/100 lbs seed rate. In addition, GA12 is tested at 50 μg/seed. The untreated control (UTC) consisted of dry, untreated seeds. Seeds of constitutively GA-deficient transgenic dwarf soybean line 719 and wild-type A4922 are sown in both light and heavy soil. The planting depth is 0.5 to 1 inch (1.27 to 2.54 cm); watering is via drip irrigation. The experiment is carried out in three repetitions, using 25 seeds/plot (one five foot (152.4 cm) long row) for line 719, and 75 seeds/plot (two eight foot (243.8 cm) rows) for line A4922. Observations included total emergence, number of dwarfs not rescued, uniformity in plant height, average plant height, visual notes, and digital photos.
In all the experiments reported in Tables 17-24, treatments are replicated three times in a randomized block design. Data are analyzed using LSD (least significant difference) 0.05 probability using the PRM 5.0 Statistical Analysis Program (SAS Institute, North Carolina).

[4] = system: non-transgenic soybean line A4922; assay: Field trial of seed coatings under soil compaction / different soils, wild-type soybean; format: in vivo, Glycine max; settings: for Count (emergence) / Height (total plant height): A4922
Description: The second trial (data reported in Tables 22-24) tested the precursors under conditions of soil compaction.
As noted above, the second trial tested the noted precursors under conditions of soil compaction. These experiments are performed in the same manner as in the first trial, except that the soil is compacted with an all-terrain vehicle.
“Height” equals total plant height in cm.

[5] = Heavy soil - loose, target rate 2.0 μg/seed, Table 22
[6] = Heavy soil - loose, target rate 8.0 μg/seed, Table 22
[7] = Light soil - Compacted, target rate 2.0 μg/seed, Table 22
[8] = Light soil - Compacted, target rate 8.0 μg/seed, Table 22
[9] = Light soil - Loose, target rate 2.0 μg/seed, Table 24
[10] = Light soil - Loose, target rate 8.0 μg/seed, Table 24
[11] = Light soil - Loose, target rate 16.0 μg/seed, Table 24
[12] = Light soil - compacted, target rate 2.0 μg/seed, Table 24
[13] = Light soil - compacted, target rate 8.0 μg/seed, Table 24
[14] = Light soil - compacted, target rate 16.0 μg/seed, Table 24

C=C1C[C@]23C[C@H]1CC[C@H]2[C@@]12CCC[C@@](C)(C(=O)O1)[C@H]2[C@@H]3C(=O)O [GA9]
% Emergence, Heavy Soil-Loose ([1]; 3.1 μg/seed): 103% | % Emergence, Light Soil-Compact ([1]; 3.1 μg/seed): 103% | % Rescue, Heavy Soil-Loose ([1]; 3.1 μg/seed): 80% | % Rescue, Light Soil-Compact ([1]; 3.1 μg/seed): 91% | % Emergence, Heavy Soil-Loose ([1]; 4.9 μg/seed): 91% | % Emergence, Light Soil-Compact ([1]; 4.9 μg/seed): 73% | % Rescue, Heavy Soil-Loose ([1]; 4.9 μg/seed): 93% | % Rescue, Light Soil-Compact ([1]; 4.9 μg/seed): 100% | Count (emergence) [1, 5]: 42 a | Dwarfs (number of dwarfs not rescued) [1, 5]: 2.0 cde | Count (emergence) [1, 6]: 35 abc | Dwarfs (number of dwarfs not rescued) [1, 6]: 0.7 cde | Count (emergence) [1, 7]: 38 abc | Dwarfs (number of dwarfs not rescued) [1, 7]: 0.7 cd | Count (emergence) [1, 8]: 27 b-f | Dwarfs (number of dwarfs not rescued) [1, 8]: 0 days | Count (emergence) [1, 9]: 48.0 a | Dwarfs (number not rescued) [1, 9]: 2.3 e | Count (emergence) [1, 10]: 49.0 a | Dwarfs (number not rescued) [1, 10]: 0 e | Count (emergence) [1, 11]: 45.0 ab | Dwarfs (number not rescued) [1, 11]: 0 e | Count (emergence) [1, 12]: 38.3 abc | Dwarfs (number not rescued) [1, 12]: 0.7 cd | Count (emergence) [1, 13]: 27.3 b-f | Dwarfs (number not rescued) [1, 13]: 0 | Count (emergence) [1, 14]: 29.7 a-f | Dwarfs (number not rescued) [1, 14]: 0 | rank of potential for rescuing GA-deficient dwarf soybeans without decreasing emergence ([1]; based on the last two field trials): GA9>GA5>GA3-3-acetate>GA3>GA12 | best to least selectivity order ([1]; emergence under soil compaction, margin of selectivity, rescue without overelongation, Table 22): GA9>GA5>GA3-3-acetate>GA3 | Significant Visual Observations on Line A3237 [2]: Normal height | A4922 Height, cm, Heavy soil ([3]; 0.1 μg compound per seed): 5.7 efg cm | A4922 Height, cm, Light soil ([3]; 0.1 μg compound per seed): 5.7 f-i cm | No. A4922 Emerged, Heavy soil ([3]; 0.1 μg compound per seed): 41.0 a-d | No. A4922 Emerged, Light soil ([3]; 0.1 μg compound per seed): 48.3 b-e | A4922 Height, cm, Heavy soil ([3]; 1 μg compound per seed): 6.3 efg cm | A4922 Height, cm, Light soil ([3]; 1 μg compound per seed): 6.3 fgh cm | No. A4922 Emerged, Heavy soil ([3]; 1 μg compound per seed): 43.0 a-d | No. A4922 Emerged, Light soil ([3]; 1 μg compound per seed): 46.7 c-g | A4922 Height, cm, Heavy soil ([3]; 10 μg compound per seed): 6.7 efg cm | A4922 Height, cm, Light soil ([3]; 10 μg compound per seed): 7.3 fg·cm | No. A4922 Emerged, Heavy soil ([3]; 10 μg compound per seed): 26.3 g·days | No. A4922 Emerged, Light soil ([3]; 10 μg compound per seed): 46.0 c-h | A4922 Height, cm, Heavy soil ([3]; 100 μg compound per seed): 10.3 cm·days | No. A4922 Emerged, Heavy soil ([3]; 100 μg compound per seed): 28.3 c-g | No. A4922 Emerged, Light soil ([3]; 100 μg compound per seed): 40.0 f-i | Count (emergence) [4, 5]: 33 ab | Height (total plant height) [4, 5]: 5.3 g·cm·days | Count (emergence) [4, 6]: 29 a-d | Height (total plant height) [4, 6]: 6.3 cde cm | Count (emergence) [4, 7]: 38 abc | Height (total plant height) [4, 7]: 5.7 def cm | Count (emergence) [4, 8]: 22 de | Height (total plant height) [4, 8]: 6.0 de cm | Count (emergence) [4, 9]: 41.3 abc | Height (total plant height) [4, 9]: 5.0 gh cm | Count (emergence) [4, 10]: 39.3 bc | Height (total plant height) [4, 10]: 7.0 ef cm | Count (emergence) [4, 11]: 39.0 bc | Height (total plant height) [4, 11]: 8.0 de cm | Count (emergence) [4, 12]: 38.0 abc | Height (total plant height) [4, 12]: 5.7 def cm | Count (emergence) [4, 13]: 21.7 de | Height (total plant height) [4, 13]: 6.0 de cm | Count (emergence) [4, 14]: 20.0 de | Height (total plant height) [4, 14]: 8.3 c cm | emergence at approximately equivalent biological response (height) ([4]; compacted soil, FIG. 40): 93% | plant height dose/response in wild-type line A4922 (FIG. 40) ([4]; ten days after planting, compacted soil): less active than GA3, GA3-3-acetate, and GA5
